Values of other authors, collected in patent US9526803B2, “Diagnostic chewing gum for pathogens” (Julius-Maximilians-Universitaet Wuerzburg, priority 2012, dated 2016).
Counter-ions that a name gives are not always drawn.

Key:
[1] = test system: human tongue; details: average human
[2] = test system: gustatory system; details: reference for calibration of volunteers; bitter value 10,000 = 1 g in 10,000 mL water barely recognized as bitter

Structure (SMILES): C=C[C@H]1C[N@@]2CC[C@H]1C[C@H]2[C@H](O)c1ccnc2ccc(OC)cc12 [Quinine sulfate]
- concentration sensed down to (taste recognition threshold) [1]: 0.0004 mM

Structure (SMILES): C=C[C@H]1C[N@@]2CC[C@H]1C[C@H]2[C@H](O)c1ccnc2ccc(OC)cc12 [quinine-HCl]
- bitter value [2]: 200,000

Structure (SMILES): O=C1NS(=O)(=O)c2ccccc21 [saccharin]
- concentration sensed down to (taste recognition threshold) [1]: 0.02 mM
